Measurements published in PMC6743422, “Preclinical disposition of MGS0274 besylate, a prodrug of a potent group II metabotropic glutamate receptor agonist MGS0008 for the treatment of schizophrenia” (Pharmacology Research & Perspectives, 2019).
Values joined by “and” are separate entries in the source; they are usually repeats but may differ in a detail not shown here. Equal values may be shown once. “Also recorded” adds a separate entry of the source. Read-outs that look alike come from different tables or passages of the source.

Assays:
[1] = test system: human cryopreserved hepatocytes; test: In vitro metabolite profiling in human cryopreserved hepatocytes; assay type: in vitro ADME; details: human hepatocytes
Procedure: Rat, monkey, or human cryopreserved hepatocytes in Leivovitz L‐15 medium at 0.5 million cells/mL were incubated at 37°C for 1 hour with [^14C]MGS0274 besylate at 10 μmol/L. The reaction was terminated by adding 10% w/v trichloroacetic acid solution, and the resultant mixture was centrifuged. Aliquots of the supernatant were subjected to bioanalysis using high‐performance liquid chromatography equipped with radiochemical flow detection (RI‐HPLC) (see Table S1‐B). Aliquots of the supernatant from unlabeled incubation samples and authentic standards were also injected into a liquid chromatography‐mass spectrometry (LC‐MS) system under the same chromatographic conditions to compare their chromatographic retention times and mass spectral data (see Table S1‐B).

CYP3A = CYP3A (Homo sapiens, UniProt P08684); test: CYP inhibition in human liver microsomes, CYP3A; assay type: in vitro ADME; details: probe testosterone (6β-hydroxytestosterone formation), human liver microsomes 0.1 mg/mL, metabolite 6β-Hydroxytestosterone
Chain of CYP3A (P08684 2-503): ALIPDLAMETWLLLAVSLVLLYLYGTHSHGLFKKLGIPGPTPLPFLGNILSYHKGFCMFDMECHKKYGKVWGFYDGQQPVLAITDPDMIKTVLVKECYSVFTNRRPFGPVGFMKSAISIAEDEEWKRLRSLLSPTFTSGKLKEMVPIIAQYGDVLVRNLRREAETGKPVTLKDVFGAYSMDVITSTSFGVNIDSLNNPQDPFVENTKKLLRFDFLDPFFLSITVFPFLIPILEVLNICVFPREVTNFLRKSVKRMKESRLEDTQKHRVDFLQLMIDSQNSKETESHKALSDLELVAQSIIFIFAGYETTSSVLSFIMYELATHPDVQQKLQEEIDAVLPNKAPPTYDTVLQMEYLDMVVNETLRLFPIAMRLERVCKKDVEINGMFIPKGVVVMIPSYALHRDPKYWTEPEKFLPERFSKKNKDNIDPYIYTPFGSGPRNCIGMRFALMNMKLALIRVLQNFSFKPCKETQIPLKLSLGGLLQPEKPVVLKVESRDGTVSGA
Procedure: The inhibition potential of MGS0008 (0.3‐100 µmol/L) and MGS0274 besylate (0.03‐10 µmol/L) on the activity of human cytochrome P450 (CYP) isoforms (CYP1A2, 2B6, 2C8, 2C9, 2C19, 2D6, and 3A) was investigated using probe substrates for each CYP isoform and human liver microsomes, of which the final protein concentration was set at 0.1 mg/mL (see Table S2). The assay was started by spiking the reaction mixture, which had been pre‐incubated at 37°C for 5 minutes, with NADP^+. After incubation for 5 to 10 minutes, the reaction was terminated by adding acetonitrile containing an internal standard for each probe substrate, and the resultant mixture was centrifuged. Aliquots of the supernatant were subjected to bioanalysis using LC‐MS/MS (see Table S1‐D).
The final protein concentration in the reaction mixture was set at 0.1 mg/mL. The values in parentheses represent the final concentrations of compounds added in each reaction mixture. […]

[2] = Pharmacokinetics of MGS0008 in rats (intravenous or oral); assay type: in vivo, rat; details: fasted male rats
Procedure: (§1) The pharmacokinetic profiles of MGS0008 and MGS0274 were investigated in fasted male Wistar rats (n = 3) and fed male cynomolgus monkeys (n = 4). Monkeys had been given 60 g of a primate diet (PS‐A; Oriental Yeast, Tokyo, Japan) one hour before administration. For intravenous administration, MGS0008 was dissolved in saline (pH7.4) and administered to rats (3 mg/kg) and monkeys (1 mg/kg). Blood samples were collected from the tail vein (rats) or the forelimb cephalic vein (monkeys) into tubes containing EDTA‐2K at 5, 15, and 30 minutes and at 1, 2, 4, 8, and 24 hours postdose for both species, and an additional sample was collected at 12 hours postdose for monkeys. Urine samples were collected until 48 hours at 24‐hour intervals (rats) or at 0‐ to 8‐hour, 8‐ to 24‐hour, and 24‐ to 48‐hour intervals (monkeys). The plasma or urine samples was mixed with acetonitrile/methanol (9:1, v/v) containing [^13C2 ^15N]MGS0008 and centrifuged. Aliquots of the supernatant were subjected to bioanalysis using LC‐MS/MS (see Table S1‐E). For oral administration, MGS0008 was dissolved in distilled water (rats) or 0.5% w/v methylcellulose 400 (monkeys) and administered to rats (3 mg/kg) and monkeys (1 mg/kg). MGS0274 besylate was suspended in 0.5% w/v methylcellulose 400 containing 0.1% v/v Tween 80 and administered to monkeys at a dose of 2.89 mg/kg (1‐mg equivalent of MGS0008/kg). Blood samples were collected from the tail vein (rats) or the forelimb cephalic vein (monkeys) into tubes containing EDTA‐2K at 30 minutes, 1, 1.5, 2, 4, 6, 8, and 24 hours postdose for rats, and 30 minutes, 1, 2, 4, 8, 12, and 24 hours postdose for monkeys. The plasma samples were mixed with acetonitrile/methanol (9:1, v/v) containing internal standards ([^13C2 ^15N]MGS0008 and MGS0039) and centrifuged. Aliquots of the supernatant were subjected to bioanalysis using LC‐MS/MS (see Tables S1‐E and F). In the study examining the tissue distribution of MGS0008 in rats (3 mg/kg), blood samples were collected from the posterior vena cava into tubes containing EDTA‐2K under isoflurane anesthesia at 1.5, 4, 6, or 24 hours postdose. Then, the animals were euthanized by exsanguination from the abdominal aorta; cerebrospinal fluid (CSF) samples were drawn from the spinal cord space in each animal. The plasma or CSF was mixed with acetonitrile/methanol (9:1, v/v) containing [^13C2 ^15N]MGS0008 and centrifuged. Aliquots of the supernatant were subjected to bioanalysis using LC‐MS/MS (see Table S1‐E).
(§2) The plasma concentration‐time profiles of MGS0008 and MGS0274 were analyzed using a non‐compartmental analysis method with pharmacokinetic analysis software Phoenix® WinNonlin® 6.2 or later (Certara, Princeton, NJ).

[3] = Plasma and CSF distribution of MGS0008 in rats; assay type: in vivo; details: Wistar, rat, fasted male rats, MGS0008 oral 3 mg/kg
Procedure: as §1, §2

[4] = test system: phencyclidine-induced locomotor hyperactivity; details: rat, oral 3 mg/kg; cited from earlier work
[5] = Wistar, rat, MGS0008 intravenous 3 mg/kg, plasma
[6] = Wistar, rat, MGS0008 oral 3 mg/kg, plasma
[7] = CSF, read-out: CSF concentration
[8] = plasma, read-out: Plasma concentration

## N[C@]1(C(=O)O)[C@H]2[C@@H](C[C@@H]1F)[C@@H]2C(=O)O [MGS0008, (1S,2S,3S,5R,6S)‐2‐amino‐3‐fluorobicyclo[3.1.0]hexane‐2,6‐dicarboxylic acid]
[1]
  further metabolism of MGS0008 in hepatocytes: not metabolized
CYP3A
  IC50: > 100 µM
[2]; Wistar, rat, plasma, other: intravenous or oral, MGS0008 intravenous or oral 3 mg/kg, below lower limit of quantification
  concentration at 24 h: < 3 ng/mL
[2]; Wistar, rat, plasma, MGS0008 intravenous 3 mg/kg, mean ± SD (n = 3), read-out: CLtotal (converted)
  clearance: 9.13 mL/min/kg
[2]; Wistar, rat, plasma, MGS0008 intravenous 3 mg/kg, mean ± SD (n = 3), read-out: Vdss
  Vd: 0.545 ± 0.0939 L/kg
[2]; Wistar, rat, plasma, MGS0008 oral 3 mg/kg, AUC0-∞ oral / AUC0-∞ intravenous × 100
  bioavailability: 78.1%
[2]; Wistar, rat, urine and plasma, MGS0008 intravenous 3 mg/kg
  CL renal: 8.52 mL/min/kg
[2]; [5]
  AUC(0-inf): 5480 ± 293 ng·h/mL
  half-life: 1.54 ± 0.06 h
[2]; [6]
  AUC(0-inf): 4280 ± 478 ng·h/mL
  Cmax: 1990 ± 64.3 ng/mL
  Tmax: 1.17 ± 0.289 h
  half-life: 0.968 ± 0.031 h
[2]; MGS0008 intravenous 3 mg/kg, within 48 hours, % of administered dose, 3 mg/kg
  Urinary excretion (unchanged form): 93.2% and 93.2 ± 4.69%
[3]; CSF/plasma, read-out: CSF/plasma AUC ratio
  Kp: 0.028
[3]; [7]
  concentration at 1.5 h: 19.1 ± 5.08 ng/mL
  concentration at 4 h: 7.88 ± 1.04 ng/mL
  concentration at 6 h: 4.84 ± 0.384 ng/mL
  concentration at 24 h: 2.04 ± 0.0265 ng/mL
[3]; CSF, read-out: AUC0–24h in CSF
  AUC(0-t): 123 ± 7.37 ng·h/mL
[3]; [8]
  concentration at 1.5 h: 1980 ± 431 ng/mL
  concentration at 4 h: 138 ± 64.2 ng/mL
  concentration at 6 h: 6.23 ± 1.83 ng/mL
[3]; plasma, below lower limit of quantification, read-out: Plasma concentration
  concentration at 24 h: < 3 ng/mL
[3]; plasma, read-out: AUC0–24h in plasma
  AUC(0-t): 4330 ± 719 ng·h/mL
[4]
  phencyclidine-induced locomotor hyperactivity: inhibited; also recorded: significantly decreased
